Several values for one entry are separate records, joined by “and”; a condition that tells them apart may be missing. Equal values may be shown once.
Tested on: eIF2-GTP-Met-tRNAi ternary complex
Experiment: Ternary complex assay (dual luciferase, firefly/renilla ratio) in stable KLN-tTA/pBISA-DL(ATF-4) cells; HTS and hit confirmation
Type: cell-based, mouse
Parameters: Activity 10 uM / Activity 2.5 uM / Activity 5 uM: unit not given here
Conditions: confirmed hits of the screen (Table 5); for Activity 2.5 uM: compound at 2.5 uM; for Activity 10 uM: compound at 10 uM; for Activity 5 uM: compound at 5 uM

Compound | Activity 2.5 uM | Activity 10 uM | Activity 5 uM
Cc1ccc(C2C(Cl)C(=O)N2n2cnc3ccccc3c2=O)cc1 (centres unmarked) [Compound 650027] | 4.2 | 4.42 | –
COc1ccc(/C=C(\C2=NC(=O)CS2)c2nc3ccccc3[nH]2)cc1 [Compound 652047] | 1.15 | 3.51 | –
COc1ccc2c3ccc4c(c3n(C)c2c1)C(=O)C=CC4=O [Compound 652257] | 3.09 | 8.74 | –
O=c1c([Se]c2coc3ccccc3c2=O)coc2ccccc12 [Compound 652531] | 0.71 | 12.9 | –
O=[N+]([O-])[O-].O=[N+]([O-])[O-].[Au].[Au].c1ccc([P-]c2ccccc2)cc1.c1ccc([P-]c2ccccc2)cc1 [Compound 652594] | 1.46 | 14.89 | –
O=C1/C(=C/c2ccc(O)c(O)c2)CCC/C1=C\c1ccc(O)c(O)c1 [Compound 652890] | 2.23 | 7.57 | –
COc1ccc(-c2nnc(-c3nsc4ccccc34)o2)cc1 [Compound 652917] | 2.33 | 3.31 | –
COc1ccc(Nc2nnc(-c3nsc4ccccc34)s2)cc1 [Compound 652924] | 1.78 | 3.58 | –
CCN(CC)CCCNc1ncc(C)c2c1c1ccc3c(O)cccc3c1n2C [Compound 653438] | 0.755 | 12.32 | –
CCSc1nnc(-c2ccccc2)nc1Cc1ccc(OC)cc1 [Compound 655141] | 2.18 | 3.91 | –
O=C1C(c2ccc([N+](=O)[O-])cc2)=C(Cl)C(=O)c2c(O)cccc21 [Compound 656075] | 2.33 | 7.97 | –
O=C1C(Cl)=C(c2ccc([N+](=O)[O-])cc2)C(=O)c2c(O)cccc21 [Compound 656076] | 4.6 | 17.27 | –
CCN(CC)Cc1cc(Nc2c3ccccc3nc3c2[nH]c2ccccc23)cc(CN(CC)CC)c1O.Cl [Compound 656711] | 0.59 | 6.66 | –
Cc1ccc(C2=Nc3cccc4cccc(c34)N2)cc1 [Compound 657189] | 2.65 | 3.16 | –
CC(=O)C1C(=O)C(=O)N(c2ccc([N+](=O)[O-])cc2)C1=O.[Na+] (centres unmarked) [Compound 657424] | 1.17 | 3.36 | –
COc1ccc(-c2nc(Nc3ccccc3)sc2Cc2sc(Nc3ccccc3)nc2-c2ccc(OC)cc2)cc1 [Compound 658163] | 2.63 | 4.46 | –
CCN1CCNc2c3cc(OC)ccc3nc3c([N+](=O)[O-])ccc1c23 [Compound 658354] | 0.2379 | 6.609 | –
COc1ccc2nc3c([N+](=O)[O-])ccc4c3c(c2c1)NCCN4CCO [Compound 658355] | 0.5 | 8.48 | –
COc1ccc2c(c1)c1c3c(ccc4ncn2c43)N(CCO)CCN=1 [Compound 658358] | 0.4 | 20.35 | –
Cl.Cn1c(N)nc(-c2ccc(Cl)cc2)c1SSc1c(-c2ccc(Cl)cc2)nc(N)n1C [Compound 658830] | 0.48 | 4.21 | –
CCn1c(O)c(C=Nc2ccccc2)s/c1=N/Nc1nc(C)cs1 [Compound 658916] | 2.047 | 3.18 | –

Compound | Activity 2.5 uM | Activity 10 uM | Activity 5 uM
O=C(CC(=O)Nc1ccccc1Cl)NNC(c1cc(N=Nc2ccc(Br)cc2)ccc1O)P(O)O (centres unmarked) [Compound 659608] | 1.34 | 3.07 | –
O=C1C=CC(=O)c2c1ccc1c3ccccc3n(-c3cccc([N+](=O)[O-])c3)c21 [Compound 661223] | 1.05 | 11.8 | –
Cn1c2ccccc2c2c(-c3ccccc3)cc3c(c21)C(=O)C=CC3=O [Compound 661225] | 1.76 | 25.16 | –
[Ru].[SH+]=C([SH2+])N1CCCCC1.[SH+]=C([SH2+])N1CCCCC1 [Compound 662875] | 10.55 | 40.72 | –
O=c1n(-c2ccc(Cl)c(Cl)c2)c(=O)n(-c2ccc(Cl)c(Cl)c2)c(=O)n1-c1ccc(Cl)c(Cl)c1 [Compound 664259] | 2.76 | 4.24 | –
Cc1nc2ccc(Br)cc2c(=O)n1-c1ccc(NC2OC(CO)C(O)C(O)C2O)cc1 (centres unmarked) [Compound 665512] | 0.47 | 15.46 | –
c1cc(-c2ncc(-c3ccc4c(c3)CCCO4)o2)ccn1 [Compound 665702] | 1.79 | 3.38 | –
Cc1ccc(S(=O)(=O)n2c3c(c4ccccc42)CCN2C(=O)C(S(=O)(=O)c4ccccc4)=CCC32)cc1 (centres unmarked) [Compound 665910] | 0.72 | 4.69 | –
N#Cc1c(N)nc([Se]CC(=O)c2ccc(Cl)cc2)c(C#N)c1-c1ccco1 [Compound 666131] | 4.12 | 8.72 | –
COc1ccc(/C=N/Nc2nc3ccccc3c(=O)n2-c2ccccc2)cc1 [Compound 666356] | 2.43 | 30.26 | –
COc1ccc(C2Oc3c(cccc3OC)C=C2[N+](=O)[O-])cc1 (centres unmarked) [Compound 667223] | – | 6.01 and 8.726 | –
COc1cccc2c1OC(c1ccc(C#N)cc1)C([N+](=O)[O-])=C2 (centres unmarked) [Compound 667226] | 0.34 | 4.79 | –
S=C1CC(c2ccccc2)Sc2ccccc2N1 (centres unmarked) [Compound 667463] | 3.13 | 3.45 | –
O=[N+]([O-])C1=Cc2cc(Cl)ccc2OC1c1cccc2ccccc12 (centres unmarked) [Compound 667472] | 0.35 | 9.48 | –
Cc1cccc(/C=N\NC(=S)N2CCCCC2)n1 [Compound 667875] | 4.59 | 7.27 | –
S=C(N/N=C/c1ccccn1)N1CC2CCC(CC2)C1 [Compound 667885] | 8.61 | 15.62 | –
C=C1CC(C)(COc2ccc3c(C)cc(=O)oc3c2)OC1=O (centres unmarked) [Compound 668262] | 0.78 | 3.33 | –
COc1ccccc1NC(=S)N/N=C(/C)c1ccccn1 [Compound 668297] | 10.51 | 37.53 | –
COc1ccccc1NC(=S)N/N=C/c1ccccn1 [Compound 668298] | 11.99 | 30.06 | –
C/C(=N/NC(=S)Nc1ccccc1C)c1ccccn1 [Compound 668332] | 27.24 | 63.38 | –
C/C(=N/NC(=S)Nc1cccc(Cl)c1)c1cccc(/C(C)=N\NC(=S)Nc2cccc(Cl)c2)n1 [Compound 668484] | 1.59 | 3.57 | –

Compound | Activity 2.5 uM | Activity 10 uM | Activity 5 uM
Oc1[nH]c2ccccc2c1N=NC(=S)N1CCCC1 [Compound 668494] | 3.76 | 13.68 | –
O=C1C=CC(=O)c2c1ccc1c3ccccc3n(CCCCCn3c4ccccc4c4ccc5c(c43)C(=O)C=CC5=O)c21 [Compound 668605] | 0.8 | 3.17 | –
S=C(NCCc1ccccn1)N/N=C/c1ccccn1 [Compound 670779] | 2.57 and 2.721 | 6.67 and 8.739 | –
C/C(=N/NC(=S)NC(C)(C)C)c1ccccn1 [Compound 670788] | 6.58 | 4.08 | –
S=C(N/N=C/c1ccccn1)Nc1ccc(Cl)cc1 [Compound 670965] | 50.7 and 44.32 | 23.32 and 25.3088 | –
S=C(NCc1ccccc1)N/N=C/c1ccccn1 [Compound 670969] | 1.55 | 3.644 | –
[CH+]=CC1([O][Sn-]([IH+])([c]2ccccc2)[c]2ccccc2)CCCCCC1 [Compound 671441] | 5.35 | – | –
Cc1cc[c]([Sn]([I])([O]C2(C=O)CCCCCC2)[c]2ccc(C)cc2)cc1 [Compound 671442] | 9.59 | 7.03 | –
CCCCCCCN1C(=O)C(O)(c2ccc(C3(O)C(=O)N(CCCCCCC)c4ccccc43)s2)c2ccccc21 (centres unmarked) [Compound 671896] | 0.85 | 4.31 | –
COc1ccc2nc3cccc([N+](=O)[O-])c3c(NCCCO)c2c1 [Compound 673797] | 2.54 | 4.7 | –
Cc1cn(C2OC(CO[Si](C)(C)C(C)(C)C)C(N(C)O[Si](C)(C)C(C)(C)C)C2[Se]c2ccccc2)c(=O)[nH]c1=O (centres unmarked) [Compound 674469] | 1.37 | 23.82 | –
Cc1cc(C)n(C(=C(C(Cl)=C(Cl)Cl)[N+](=O)[O-])n2nc(C)cc2C)n1 [Compound 678036] | 0.85 | 12.77 | –
CC(C)[Si]1(C(C)C)OCC2OC(N3C(=O)NC(=O)C[C@@H]3C(O)c3ccccc3)CC2O[Si](C(C)C)(C(C)C)O1 (some centres unmarked) [Compound 680834] | 0.76 | 4.25 | –
CN1/C(=C/C=C/C=C/C=C2C(=O)c3ccccc3C2=O)C(C)(C)c2ccccc21 [Compound 682512] | 0.57 | 10.02 | –
c1ccc(-c2ccc(N=NN3CCCC3)cc2)cc1 [Compound 687753] | – | 6.931 | 4.922
C=CC(=O)N1C/C(=C\c2ccc(Cl)cc2)C(=O)/C(=C/c2ccc(Cl)cc2)C1 [Compound 687849] | 0.88 | 12.02 | –
CN(C)c1ccc(/C=C2\CCCCCC2=O)cc1 [Compound 689962] | – | 7.987 | 4.784
Cn1/c(=N\S(=O)(=O)c2ccccc2)n(S(=O)(=O)c2ccccc2)c2ccccc21 [Compound 690404] | 1.46 | 3.03 | –
COc1cc(/C=C2\CCC(C)/C(=C\c3cc(OC)c(OC)c(OC)c3)C2=O)cc(OC)c1OC (centres unmarked) [Compound 690734] | 0.48 | 10.02 | –
FC(F)(Sc1ccccc1)c1nc2ccccc2o1 [Compound 691255] | – | 5.5705 | 3.963

From patent publication US9932300B2, “N,N′-diarylurea compounds and N,N′-diarylthiourea compounds as inhibitors of translation initiation” (President and Fellows of Harvard College, priority 2009, dated 2018)
